Experimental data: ChEMBL document CHEMBL1201862, “PubChem BioAssay data set” (2004)
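96-well plates; 48 h exposure; 5 concentrations. Endpoints by linear interpolation between flanking doses. Not reached: highest tested concentration assigned. GI50: concentration for 50% inhibition of growth.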 Active and inactive are the calls of the source. Rule as the data show it: active = GI50 up to about 1.1 µM and inactive = higher.

Assays:
Experiment in all cases: inhibition of tumour cell growth, NCI panel, 48 h
UO-31 = test system: UO-31
U-251 = test system: U-251
SK-MEL-2 = test system: SK-MEL-2
HOP-62 = test system: HOP-62
SNB-19 = test system: SNB-19
M14 = test system: M14
SW-620 = test system: SW-620
NCI-H23 = test system: NCI-H23
NCI/ADR-RES = test system: NCI/ADR-RES
EKVX = test system: EKVX
COLO 205 = test system: COLO 205
MDA-MB-435 = test system: MDA-MB-435
BT-549 = test system: BT-549
786-0 = test system: 786-0
A549 = test system: A549
IGROV-1 = test system: IGROV-1
MDA-N = test system: MDA-N
HL-60 = test system: HL-60
NCI-H226 = test system: NCI-H226
SR = test system: SR

Row | Compound | GI50 (UO-31) | GI50 (U-251) | GI50 (SK-MEL-2) | GI50 (HOP-62) | GI50 (SNB-19) | GI50 (M14) | GI50 (SW-620) | GI50 (NCI-H23) | GI50 (NCI/ADR-RES) | GI50 (EKVX) | GI50 (COLO 205) | GI50 (MDA-MB-435) | GI50 (BT-549) | GI50 (786-0) | GI50 (A549) | GI50 (IGROV-1) | GI50 (MDA-N) | GI50 (HL-60) | GI50 (NCI-H226) | GI50 (SR)
1 | CNC(=O)c1nn[nH]c1Sc1c([N+](=O)[O-])ncn1C | > 100 µM (inactive) | > 100 µM (inactive) | > 100 µM (inactive) | > 100 µM (inactive) | > 100 µM (inactive) | > 100 µM (inactive) | > 100 µM (inactive) | > 100 µM (inactive) | > 100 µM (inactive) | > 100 µM (inactive) | > 100 µM (inactive) | > 100 µM (inactive) | > 100 µM (inactive) | > 100 µM (inactive) | > 100 µM (inactive) | > 100 µM (inactive) | – | – | – | –
2 | CCOC(=O)C1(C)CCc2sc(N)c(C#N)c21 (stereo unspecified) | > 100 µM (inactive) | > 100 µM (inactive) | > 100 µM (inactive) | > 100 µM (inactive) | > 100 µM (inactive) | > 100 µM (inactive) | > 100 µM (inactive) | > 100 µM (inactive) | – | > 100 µM (inactive) | > 100 µM (inactive) | – | > 100 µM (inactive) | > 100 µM (inactive) | > 100 µM (inactive) | > 100 µM (inactive) | > 100 µM (inactive) | > 100 µM (inactive) | > 100 µM (inactive) | –
3 | COc1cc([C@@H]2c3cc4c(cc3[C@@H](OC3OC5COC(C)OC5C(OC(=O)CN5CCN(C)CC5)C3OC(=O)CN3CCN(C)CC3)C3COC(=O)[C@@H]32)OCO4)cc(OC)c1OC(=O)CN1CCN(C)CC1 (stereo partly specified) | 68.9 µM (inactive) | 26.9 µM (inactive) | > 100 µM (inactive) | 40.2 µM (inactive) | 78.7 µM (inactive) | 55.8 µM (inactive) | 41.8 µM (inactive) | 22.3 µM (inactive) | 29.9 µM (inactive) | > 100 µM (inactive) | > 100 µM (inactive) | > 100 µM (inactive) | 34.4 µM (inactive) | 21.9 µM (inactive) | – | 72.3 µM (inactive) | > 100 µM (inactive) | 11.5 µM (inactive) | 50.4 µM (inactive) | –
4 | c1ccc2c(c1)-c1ccccc1C2NC1=NCCO1 | 24.1 µM (inactive) | 31.3 µM (inactive) | 18.8 µM (inactive) | 22.5 µM (inactive) | 36.6 µM (inactive) | 17.2 µM (inactive) | 54.2 µM (inactive) | 34.1 µM (inactive) | 23.4 µM (inactive) | 40.6 µM (inactive) | 18.9 µM (inactive) | 23 µM (inactive) | – | 28.1 µM (inactive) | 32.4 µM (inactive) | 16.4 µM (inactive) | 11.8 µM (inactive) | 26.5 µM (inactive) | 23.8 µM (inactive) | 30.3 µM (inactive)
5 | CCCCOC(=O)c1cc(C(=CCC[C@H]2CC[C@@]3(C)[C@@H](CC[C@@H]4[C@@H]3CC[C@]3(C)[C@@H](C(C)CCCC(C)C)CC[C@@H]43)C2)c2cc(Cl)c(O)c(C(=O)OCCCC)c2)cc(Cl)c1O (stereo partly specified) | – | > 50 µM (inactive) | > 50 µM (inactive) | > 50 µM (inactive) | > 50 µM (inactive) | – | > 50 µM (inactive) | > 50 µM (inactive) | > 50 µM (inactive) | > 50 µM (inactive) | > 50 µM (inactive) | > 50 µM (inactive) | > 50 µM (inactive) | > 50 µM (inactive) | – | > 50 µM (inactive) | > 50 µM (inactive) | > 50 µM (inactive) | > 50 µM (inactive) | –
6 | CSc1scc2c1/C(=N/NC(N)=O)CCC2 | > 100 µM (inactive) | > 100 µM (inactive) | > 100 µM (inactive) | > 100 µM (inactive) | > 100 µM (inactive) | > 100 µM (inactive) | > 100 µM (inactive) | > 100 µM (inactive) | 20.1 µM (inactive) | – | > 100 µM (inactive) | 52.8 µM (inactive) | 80 µM (inactive) | > 100 µM (inactive) | 78.3 µM (inactive) | – | 45.3 µM (inactive) | – | 22.4 µM (inactive) | –
7 | Cc1ccc(NC(=S)N/N=C2\C(=O)Nc3ccccc32)cc1 | 78.5 µM (inactive) | > 100 µM (inactive) | 97.7 µM (inactive) | > 100 µM (inactive) | > 100 µM (inactive) | 94 µM (inactive) | > 100 µM (inactive) | > 100 µM (inactive) | 51.3 µM (inactive) | 75.9 µM (inactive) | > 100 µM (inactive) | > 100 µM (inactive) | – | > 100 µM (inactive) | > 100 µM (inactive) | 84.7 µM (inactive) | > 100 µM (inactive) | > 100 µM (inactive) | 92.3 µM (inactive) | 87.7 µM (inactive)
8 | CCOc1ccc2c(ccc(/C=C/c3cc(C)c4cccnc4c3O)[n+]2C)c1 | 8.09 µM (inactive) | 0.18 µM (active) | 0.498 µM (active) | 1.14 µM (inactive) | 0.594 µM (active) | 0.836 µM (active) | 0.459 µM (active) | 1.08 µM (active) | 41.6 µM (inactive) | 0.925 µM (active) | 0.624 µM (active) | 0.929 µM (active) | 1.52 µM (inactive) | 0.53 µM (active) | 1.33 µM (inactive) | 0.675 µM (active) | – | 0.141 µM (active) | 0.859 µM (active) | 0.153 µM (active)
9 | O=C(O)CC1C(=O)OC2C3COC(=O)c4cc(O)c(O)c(O)c4-c4c(cc(O)c(O)c4O)C(=O)OC2C(OC(=O)c2cc(O)c(O)c4c2C1C(O)C(=O)O4)C(OC(=O)c1cc(O)c(O)c(O)c1)O3 (stereo unspecified) | 27.2 µM (inactive) | 23.9 µM (inactive) | > 100 µM (inactive) | > 100 µM (inactive) | > 100 µM (inactive) | 27.7 µM (inactive) | 28.8 µM (inactive) | 49.3 µM (inactive) | 16.7 µM (inactive) | 18 µM (inactive) | 35.1 µM (inactive) | 26.4 µM (inactive) | – | 18.5 µM (inactive) | 21.6 µM (inactive) | 30.2 µM (inactive) | 24.1 µM (inactive) | 7.43 µM (inactive) | 30.4 µM (inactive) | 33.7 µM (inactive)
10 | CC(=O)O[C@H]1C(=O)O[C@@H]2C[C@H]3C(C)=CC(=O)[C@@H](O)[C@]3(C)[C@H]3[C@@]4(O)OC[C@]32[C@@H]1[C@@H](C)[C@H]4O | 0.53 µM (active) | 0.0285 µM (active) | 0.0611 µM (active) | 0.0498 µM (active) | – | 0.0219 µM (active) | 0.0527 µM (active) | 0.0268 µM (active) | 2.21 µM (inactive) | 0.0453 µM (active) | 0.188 µM (active) | 0.0214 µM (active) | 0.0312 µM (active) | 0.0238 µM (active) | – | 0.0279 µM (active) | 0.0211 µM (active) | 0.0229 µM (active) | – | –
11 | CCOC(=O)c1cnc2oc(/C=N/N3CC(CN4CCOCC4)OC3=O)cc2c1O (stereo unspecified) | > 100 µM (inactive) | > 100 µM (inactive) | > 100 µM (inactive) | > 100 µM (inactive) | > 100 µM (inactive) | > 100 µM (inactive) | > 100 µM (inactive) | > 100 µM (inactive) | > 100 µM (inactive) | > 100 µM (inactive) | > 100 µM (inactive) | > 100 µM (inactive) | – | > 100 µM (inactive) | > 100 µM (inactive) | > 100 µM (inactive) | > 100 µM (inactive) | > 100 µM (inactive) | > 100 µM (inactive) | > 100 µM (inactive)
12 | O=C1CN(c2cccc(Cl)c2)C(=O)CN1CCN1CC(=O)N(c2cccc(Cl)c2)CC1=O | > 100 µM (inactive) | > 100 µM (inactive) | – | > 100 µM (inactive) | > 100 µM (inactive) | > 100 µM (inactive) | > 100 µM (inactive) | 26.4 µM (inactive) | – | > 100 µM (inactive) | > 100 µM (inactive) | > 100 µM (inactive) | > 100 µM (inactive) | > 100 µM (inactive) | > 100 µM (inactive) | > 100 µM (inactive) | > 100 µM (inactive) | > 100 µM (inactive) | – | > 100 µM (inactive)
13 | C[C@@H]1C[C@@]2(O[C@@H]2C)C(=O)O[C@@H]2CCN3CC=C(COC(=O)[C@]1(C)O)[C@H]23 | > 100 µM (inactive) | > 100 µM (inactive) | > 100 µM (inactive) | – | > 100 µM (inactive) | > 100 µM (inactive) | > 100 µM (inactive) | > 100 µM (inactive) | > 100 µM (inactive) | > 100 µM (inactive) | > 100 µM (inactive) | > 100 µM (inactive) | > 100 µM (inactive) | > 100 µM (inactive) | > 100 µM (inactive) | > 100 µM (inactive) | > 100 µM (inactive) | > 100 µM (inactive) | > 100 µM (inactive) | –
14 | NCCC(=O)N[C@@H](Cc1cc(O)c(O)c(SCC(NC(=O)CC[C@H](N)C(=O)O)C(=O)NCC(=O)O)c1)C(=O)O (stereo partly specified) | > 50 µM (inactive) | > 50 µM (inactive) | > 50 µM (inactive) | 34.4 µM (inactive) | > 50 µM (inactive) | > 50 µM (inactive) | > 50 µM (inactive) | > 50 µM (inactive) | > 50 µM (inactive) | > 50 µM (inactive) | > 50 µM (inactive) | > 50 µM (inactive) | > 50 µM (inactive) | > 50 µM (inactive) | > 50 µM (inactive) | > 50 µM (inactive) | > 50 µM (inactive) | – | > 50 µM (inactive) | –
15 | N#Cc1nc(CCC(C(=O)O)N2C(=O)c3ccccc3C2=O)oc1N (stereo unspecified) | > 100 µM (inactive) | > 100 µM (inactive) | > 100 µM (inactive) | > 100 µM (inactive) | > 100 µM (inactive) | > 100 µM (inactive) | > 100 µM (inactive) | > 100 µM (inactive) | > 100 µM (inactive) | > 100 µM (inactive) | > 100 µM (inactive) | > 100 µM (inactive) | – | > 100 µM (inactive) | 41.7 µM (inactive) | > 100 µM (inactive) | > 100 µM (inactive) | > 100 µM (inactive) | > 100 µM (inactive) | > 100 µM (inactive)
